# Values of other authors as cited in US20200268651A1, “STABLE VITAMIN B12 LIQUID FORMULATIONS” (priority 2019, published 2020).
# Experiments:
# [1] = ascorbic acid (AH2), studied at pH 1.0-8.0
# [2] = long-term use
Compound,pH of maximum rate of degradation in the presence of ascorbic acid [1] [pH],people with reduced serum levels of vitamin B12 [2]
C/C1=C2/[N-][C@H]([C@H](CC(N)=O)[C@@]2(C)CCC(=O)NC[C@@H](C)OP(=O)([O-])O[C@H]2[C@@H](O)[C@@H](n3cnc4cc(C)c(C)cc43)O[C@@H]2CO)[C@]2(C)N=C(/C(C)=C3N=C(/C=C4N=C1[C@@H](CCC(N)=O)C\4(C)C)[C@@H](CCC(N)=O)[C@]\3(C)CC(N)=O)[C@@H](CCC(N)=O)[C@]2(C)CC(N)=O.[Co+3].[OH-] [hydroxocobalamin],5.0,–
CN(C)C(=N)N=C(N)N [metformin],–,up to 30%
cyanocobalamin,5.0,–
